According to ChEMBL document CHEMBL1201862, “PubChem BioAssay data set” (2004):
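The compound was tested at five concentrations on cells cultured in 96-well plates, with a 48-hour exposure period. Here, GI50 denotes the concentration required for 50% inhibition of growth.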 Activity calls are given as the source filed them. Cut-off read from the data, not from the text of the source: active = GI50 up to about 1.1 µM and inactive = higher.

Columns and labels:
Assay in all cases: NCI-60 cell line screen, 48 h
NCI-H226 = test system: NCI-H226
MDA-MB-435 = test system: MDA-MB-435
ACHN = test system: ACHN
SK-MEL-5 = test system: SK-MEL-5
NCI-H23 = test system: NCI-H23
SF-295 = test system: SF-295
SR = test system: SR
HCT-15 = test system: HCT-15
TK-10 = test system: TK-10
A549 = test system: A549
HCC 2998 = test system: HCC 2998
MDA-MB-231 = test system: MDA-MB-231
786-0 = test system: 786-0
DU-145 = test system: DU-145
COLO 205 = test system: COLO 205
UO-31 = test system: UO-31
OVCAR-3 = test system: OVCAR-3
SK-MEL-2 = test system: SK-MEL-2

CC1=NC(=Cc2cccc(Cl)c2)C(=O)N1n1c(-c2ccccc2)nc2ccccc2c1=O
GI50 (NCI-H226): 90.4 µM (inactive) | GI50 (MDA-MB-435): 41 µM (inactive) | GI50 (ACHN): 24.5 µM (inactive) | GI50 (SK-MEL-5): 28.2 µM (inactive) | GI50 (NCI-H23): 25.6 µM (inactive) | GI50 (SF-295): 35.7 µM (inactive) | GI50 (SR): 25.2 µM (inactive) | GI50 (HCT-15): 39.3 µM | GI50 (TK-10): 50.6 µM (inactive) | GI50 (A549): 35.8 µM (inactive) | GI50 (HCC 2998): 24.5 µM (inactive) | GI50 (MDA-MB-231): 48.5 µM (inactive) | GI50 (786-0): 48.6 µM (inactive) | GI50 (DU-145): 38.9 µM (inactive) | GI50 (COLO 205): 36.1 µM (inactive) | GI50 (UO-31): 39 µM (inactive)

Nc1ccc(C23CC4CC(C2)CC(c2ccc(N)cc2)(C4)C3)cc1
GI50 (NCI-H226): 11.5 µM (inactive) | GI50 (MDA-MB-435): 0.164 µM (active) | GI50 (ACHN): 41.1 µM (inactive) | GI50 (SK-MEL-5): 13.1 µM (inactive) | GI50 (NCI-H23): 59.6 µM (inactive) | GI50 (SR): 14.6 µM (inactive) | GI50 (HCT-15): 14.5 µM | GI50 (TK-10): > 100 µM (inactive) | GI50 (OVCAR-3): 48.5 µM (inactive) | GI50 (A549): > 100 µM (inactive) | GI50 (HCC 2998): 8.09 µM (inactive) | GI50 (MDA-MB-231): 1.96 µM (inactive) | GI50 (786-0): 38.5 µM (inactive) | GI50 (DU-145): 51.2 µM (inactive) | GI50 (COLO 205): 2.3 µM (inactive) | GI50 (UO-31): 48.6 µM (inactive) | GI50 (SK-MEL-2): 35.9 µM (inactive)

Cc1ccc(/C=C2\NC(=S)N(CN3CCOCC3)C2=O)cc1
GI50 (NCI-H226): > 100 µM (inactive) | GI50 (MDA-MB-435): > 100 µM (inactive) | GI50 (ACHN): > 100 µM (inactive) | GI50 (SK-MEL-5): > 100 µM (inactive) | GI50 (NCI-H23): > 100 µM (inactive) | GI50 (SF-295): > 100 µM (inactive) | GI50 (SR): > 100 µM (inactive) | GI50 (HCT-15): > 100 µM | GI50 (TK-10): > 100 µM (inactive) | GI50 (OVCAR-3): > 100 µM (inactive) | GI50 (A549): > 100 µM (inactive) | GI50 (MDA-MB-231): > 100 µM (inactive) | GI50 (786-0): > 100 µM (inactive) | GI50 (DU-145): > 100 µM (inactive) | GI50 (COLO 205): > 100 µM (inactive) | GI50 (UO-31): > 100 µM (inactive) | GI50 (SK-MEL-2): > 100 µM (inactive)

C[C@]12CC/C(=N\O)C=C1CC[C@@H]1[C@@H]2CC[C@]2(C)C(=N/O)/C(=C/c3ccc([N+](=O)[O-])cc3)C[C@@H]12
GI50 (NCI-H226): 12.9 µM (inactive) | GI50 (MDA-MB-435): 3.6 µM (inactive) | GI50 (ACHN): 5.21 µM (inactive) | GI50 (SK-MEL-5): 3.21 µM (inactive) | GI50 (NCI-H23): 6 µM (inactive) | GI50 (SF-295): 3.56 µM (inactive) | GI50 (SR): 2.79 µM (inactive) | GI50 (HCT-15): 3.44 µM | GI50 (TK-10): 6.41 µM (inactive) | GI50 (OVCAR-3): 2.61 µM (inactive) | GI50 (A549): 3.94 µM (inactive) | GI50 (MDA-MB-231): 6.64 µM (inactive) | GI50 (786-0): 6.65 µM (inactive) | GI50 (DU-145): 5.35 µM (inactive) | GI50 (COLO 205): 4.9 µM (inactive) | GI50 (UO-31): 2.67 µM (inactive) | GI50 (SK-MEL-2): 3.91 µM (inactive)

O=C(O)CC(Cc1ccccc1Cl)C(=O)O (stereo not given)
GI50 (NCI-H226): > 100 µM (inactive) | GI50 (MDA-MB-435): > 100 µM (inactive) | GI50 (ACHN): > 100 µM (inactive) | GI50 (SK-MEL-5): > 100 µM (inactive) | GI50 (NCI-H23): > 100 µM (inactive) | GI50 (SF-295): > 100 µM (inactive) | GI50 (HCT-15): > 100 µM | GI50 (TK-10): > 100 µM (inactive) | GI50 (OVCAR-3): > 100 µM (inactive) | GI50 (A549): > 100 µM (inactive) | GI50 (HCC 2998): > 100 µM (inactive) | GI50 (MDA-MB-231): > 100 µM (inactive) | GI50 (786-0): > 100 µM (inactive) | GI50 (DU-145): > 100 µM (inactive) | GI50 (COLO 205): > 100 µM (inactive) | GI50 (UO-31): > 100 µM (inactive) | GI50 (SK-MEL-2): > 100 µM (inactive)

COc1ccc(-c2c(C#N)c(O)n(C3OC(CO)C(O)C(O)C3O)c(=S)c2C#N)cc1 (stereo not given)
GI50 (NCI-H226): > 100 µM (inactive) | GI50 (MDA-MB-435): > 100 µM (inactive) | GI50 (ACHN): > 100 µM (inactive) | GI50 (SK-MEL-5): > 100 µM (inactive) | GI50 (NCI-H23): > 100 µM (inactive) | GI50 (SF-295): > 100 µM (inactive) | GI50 (SR): > 100 µM (inactive) | GI50 (HCT-15): > 100 µM | GI50 (TK-10): > 100 µM (inactive) | GI50 (OVCAR-3): > 100 µM (inactive) | GI50 (A549): > 100 µM (inactive) | GI50 (HCC 2998): > 100 µM (inactive) | GI50 (MDA-MB-231): > 100 µM (inactive) | GI50 (786-0): > 100 µM (inactive) | GI50 (DU-145): > 100 µM (inactive) | GI50 (UO-31): > 100 µM (inactive) | GI50 (SK-MEL-2): > 100 µM (inactive)

COc1ccc(OC)c2c(Nc3ccc(S(=O)(=O)O)c4cc(S(=O)(=O)O)cc(S(=O)(=O)O)c34)cc(C)nc12
GI50 (NCI-H226): > 100 µM (inactive) | GI50 (MDA-MB-435): > 100 µM (inactive) | GI50 (ACHN): > 100 µM (inactive) | GI50 (SK-MEL-5): > 100 µM (inactive) | GI50 (NCI-H23): > 100 µM (inactive) | GI50 (SF-295): > 100 µM (inactive) | GI50 (HCT-15): > 100 µM | GI50 (TK-10): > 100 µM (inactive) | GI50 (OVCAR-3): > 100 µM (inactive) | GI50 (A549): > 100 µM (inactive) | GI50 (HCC 2998): 10.8 µM (inactive) | GI50 (MDA-MB-231): > 100 µM (inactive) | GI50 (786-0): > 100 µM (inactive) | GI50 (DU-145): > 100 µM (inactive) | GI50 (COLO 205): > 100 µM (inactive) | GI50 (UO-31): > 100 µM (inactive) | GI50 (SK-MEL-2): > 100 µM (inactive)

CCOC(=O)C(NC(=O)c1ccccc1)(Nc1ccc(Cl)cc1C(F)(F)F)C(F)(F)F (stereo not given)
GI50 (NCI-H226): 16.7 µM (inactive) | GI50 (MDA-MB-435): 1.26 µM (inactive) | GI50 (ACHN): 9.42 µM (inactive) | GI50 (SK-MEL-5): 4.91 µM (inactive) | GI50 (NCI-H23): 4.59 µM (inactive) | GI50 (SF-295): 4.03 µM (inactive) | GI50 (SR): 2.28 µM (inactive) | GI50 (TK-10): 8.26 µM (inactive) | GI50 (OVCAR-3): 3.57 µM (inactive) | GI50 (A549): 4.59 µM (inactive) | GI50 (HCC 2998): > 28.3 µM (inactive) | GI50 (MDA-MB-231): 6.31 µM (inactive) | GI50 (786-0): 8.95 µM (inactive) | GI50 (DU-145): 12.9 µM (inactive) | GI50 (COLO 205): 4.58 µM (inactive) | GI50 (UO-31): 5.21 µM (inactive) | GI50 (SK-MEL-2): 4.74 µM (inactive)
